Data from US10857110B2, “Antibacterial compounds” (CONSEJO NACIONAL DE INVESTIGACIONES CIENTÍFICAS Y TÉCNICAS …, priority 2016, dated 2020).
Values after ≈ are worked out from the molar mass of the structure shown.

How the values were obtained:
Experiment in all cases: MIC/MBC antibiotic sensitivity (CLSI)
[1] = tested on: Achromobacter xylosaxidans (HNA001); format: cell-based, Achromobacter xylosoxidans; conditions: Achromobacter xylosaxidans (HNA001)
Description: (§1) The new compounds of the invention were synthesized following the general method of preparation (Tetrahedron, 2001, 57, 1671-1675), from the reaction between an intermediary compound of the acyl thiourea and HgCl2 in presence of trimethylamine. The products were adequately characterized regarding its chemistry. The antibacterial activity of the new compounds was assayed against two Gram-positive reference strains: Staphylococcus aureus (ATCC6538) and Bacillus cereus (ATCC10876), a fermenting Gram-negative strain: Escherichia coli (ATCC25922), and 26 non-fermenting Gram-negative isolates, including 3 reference strains: Pseudomonas aeruginosa (PAO1), Bordetella bronchiseptica (9.73H+), and Inquilinus limosus (DSM16000), and 23 isolates recovered from patients suffering from cystic fibrosis, including one Achromobacter xylosoxidans isolate, and 22 isolates belonging to the Burkholderia cepacia complex. The later were selected because they presented resistance to a high number of antimicrobial compounds, among a panel of 125 clinical isolates previously analyzed for its resistance against 17 antimicrobial compounds (1,2). The antibiotic sensitivity studies were performed by applying two quantitative methods which allow to determine the minimum inhibitory concentration (MIC) and the minimum bactericidal concentration (MBC).
(§2) The compounds obtained in Examples 1 and 2 were assayed against 23 isolates recovered from the sputum of patients suffering from cystic fibrosis being treated at the Sor Maria Ludovica Children Hospital (La Plata, Buenos Aires, Argentina). Nineteen of these isolates were selected for being highly resistant to most of the antimicrobial agents of clinical use from a panel of 125 isolates previously characterized in Martina et al. (1). Reference strains were also included: Gram (+) bacteria: B. cereus and S. aureus, fermenting Gram (−) bacteria: E. coli, and non-fermenting Gram (−) bacteria: Inquilinus limosus (DSM16000), B. bronchiseptica, and Pseudomonas aeruginosa (PAO1). The antibiotic sensitivity studies were performed applying two quantitative methods which allow to determine the minimum inhibitory concentration (MIC) and the minimum bactericidal concentration (MBC) according to the criteria established by the Clinical and Laboratory Standards Institute (CLSI) (4). For comparative purposes, three antibiotics commonly used in the treatment of pulmonary infections in cystic fibrosis patients were included in the study: tobramycin, ceftazidime and meropenem.

[2] = tested on: B. cenacepacia (FQC2524); format: cell-based, B. cenocepacia; conditions: Burkholderia cenocepacia
Description: as §1, §2

[3] = tested on: B. contaminans (HNBC001); format: cell-based
Description: as §1, §2

[4] = tested on: Burkholderia seminalis (CBC 040); format: cell-based; conditions: Burkholderia seminalis (CBC 040)
Description: as §1, §2

[5] = tested on: Burkholderia cenocepacia (CBC 036); format: cell-based; conditions: Burkholderia cenocepacia (CBC 036)
Description: as §1, §2

[6] = tested on: Burkholderia cenocepacia (CBC 023); format: cell-based; conditions: Burkholderia cenocepacia (CBC 023)
Description: as §1, §2

[7] = tested on: Burkholderia cenocepacia (CBC 024); format: cell-based; conditions: Burkholderia cenocepacia (CBC 024)
Description: as §1, §2

[8] = tested on: Burkholderia cenocepacia (CBC 031); format: cell-based; conditions: Burkholderia cenocepacia (CBC 031)
Description: as §1, §2

[9] = tested on: Burkholderia seminalis (CBC 042); format: cell-based; conditions: Burkholderia seminalis (CBC 042)
Description: as §1, §2

[10] = tested on: Pseudomonas aeruginosa (PAO1); format: cell-based; conditions: Pseudomonas aeruginosa, P. aeruginosa (PAO1)
Description: as §1, §2

[11] = tested on: Burkholderia cepacia (CBC 010); format: cell-based; conditions: Burkholderia cepacia (CBC 010)
Description: as §1, §2

[12] = tested on: Burkholderia cenocepacia (CBC 029); format: cell-based; conditions: Burkholderia cenocepacia (CBC 029)
Description: as §1, §2

[13] = tested on: Burkholderia multivorans (CBC 018); format: cell-based; conditions: Burkholderia multivorans (CBC 018)
Description: as §1, §2

[14] = tested on: Burkholderia multivorans (CBC 021); format: cell-based; conditions: Burkholderia multivorans (CBC 021)
Description: as §1, §2

[15] = tested on: Burkholderia cenocepacia (CBC 035); format: cell-based; conditions: Burkholderia cenocepacia (CBC 035)
Description: as §1, §2

[16] = tested on: Staphylococcus aureus (ATCC6538); format: cell-based
Description: as §1, §2

[17] = tested on: Burkholderia multivorans (CBC 019); format: cell-based; conditions: Burkholderia multivorans (CBC 019)
Description: as §1, §2

[18] = tested on: Burkholderia multivorans (CBC 022); format: cell-based; conditions: Burkholderia multivorans (CBC 022)
Description: as §1, §2

[19] = tested on: Bacillus cereus (ATCC10876); format: cell-based
Description: as §1, §2

[20] = tested on: Inquilinus limosus (DSM16000); format: cell-based
Description: as §1, §2

[21] = tested on: Burkholderia cenocepacia (HE001); format: cell-based; conditions: Burkholderia cenocepacia (HE001)
Description: as §1, §2

[22] = tested on: Escherichia coli (ATCC25922); format: cell-based
Description: as §1, §2

[23] = tested on: Burkholderia multivorans (CBC 020); format: cell-based; conditions: Burkholderia multivorans (CBC 020)
Description: as §1, §2

[24] = tested on: Burkholderia cepacia (CBC 011); format: cell-based; conditions: Burkholderia cepacia (CBC 011)
Description: as §1, §2

MIC ([1]; read-out: MIC): < 0.48 µg/mL
MIC ([2]; read-out: MIC): 0.97 µg/mL (≈ 1.61 µM)
MIC ([3]; read-out: MIC): < 0.48 µg/mL
MIC ([4]; read-out: MIC): 3.9 µg/mL (≈ 6.46 µM)
MIC ([5]; read-out: MIC): 1.95 µg/mL (≈ 3.23 µM)
MIC ([6]; read-out: MIC): 1.95 µg/mL (≈ 3.23 µM)
MIC ([7]; read-out: MIC): 1.95 µg/mL (≈ 3.23 µM)
MIC ([8]; read-out: MIC): 1.95 µg/mL (≈ 3.23 µM)
MIC ([9]; read-out: MIC): 0.96 µg/mL (≈ 1.59 µM)
MIC ([10]; read-out: MIC): 0.48 µg/mL (≈ 0.796 µM)
MIC ([11]; read-out: MIC): 3.9 µg/mL (≈ 6.46 µM)
MIC ([12]; read-out: MIC): 3.9 µg/mL (≈ 6.46 µM)
MIC ([13]; read-out: MIC): 1.95 µg/mL (≈ 3.23 µM)
MIC ([14]; read-out: MIC): 1.95 µg/mL (≈ 3.23 µM)
MIC ([15]; read-out: MIC): 1.95 µg/mL (≈ 3.23 µM)
MIC ([16]; Staphylococcus aureus, S. aureus (ATCC6538), read-out: MIC): 0.24 µg/mL (≈ 0.398 µM)
MIC ([17]; read-out: MIC): 1.95 µg/mL (≈ 3.23 µM)
MIC ([18]; read-out: MIC): 3.9 µg/mL (≈ 6.46 µM)
MIC ([19]; read-out: MIC): 1.95 µg/mL (≈ 3.23 µM)
MIC ([20]; read-out: MIC): 3.9 µg/mL (≈ 6.46 µM)
MIC ([21]; read-out: MIC): 3.9 µg/mL (≈ 6.46 µM)
MIC ([22]; Escherichia coli, E. coli (ATCC25922), read-out: MIC): 0.97 µg/mL (≈ 1.61 µM)
MIC ([23]; read-out: MIC): 3.9 µg/mL (≈ 6.46 µM)
MIC ([24]; read-out: MIC): 1.95 µg/mL (≈ 3.23 µM)
SMILES: O=C(NC(=Nc1c(F)cc(F)cc1Br)Nc1c(F)cc(F)cc1Br)C12CC3CC(CC(C3)C1)C2 [H-BDF, N—(N,N′-bis(2-bromo-4,6-difluorophenyl)carbamimidoyl)adamantane-1-carboxamide]
MBC [1]: < 0.48 µg/mL
MBC [2]: 3.9 µg/mL (≈ 6.46 µM)
MBC [3]: 0.97 µg/mL (≈ 1.61 µM)
MBC [4]: 7.81 µg/mL (≈ 12.9 µM)
MBC ([5]; read-out: MBC): 7.81 µg/mL (≈ 12.9 µM)
MBC [6]: 3.9 µg/mL (≈ 6.46 µM)
MBC ([7]; read-out: MBC): 7.81 µg/mL (≈ 12.9 µM)
MBC ([8]; read-out: MBC): 7.81 µg/mL (≈ 12.9 µM)
MBC [9]: 7.81 µg/mL (≈ 12.9 µM)
MBC ([10]; read-out: MBC): 3.9 µg/mL (≈ 6.46 µM)
MBC [11]: 7.81 µg/mL (≈ 12.9 µM)
MBC ([12]; read-out: MBC): 15.6 µg/mL (≈ 25.9 µM)
MBC ([13]; read-out: MBC): 7.81 µg/mL (≈ 12.9 µM)
MBC [14]: 3.9 µg/mL (≈ 6.46 µM)
MBC ([15]; read-out: MBC): 3.9 µg/mL (≈ 6.46 µM)
MBC ([16]; Staphylococcus aureus, S. aureus (ATCC6538), read-out: MBC): 0.97 µg/mL (≈ 1.61 µM)
Selectivity Index (SI) ([16]; ratio IC50 (THP-I) / MIC against S. aureus): 62
MBC [17]: 7.81 µg/mL (≈ 12.9 µM)
MBC [18]: 7.8 µg/mL (≈ 12.9 µM)
MBC ([19]; read-out: MBC): 1.95 µg/mL (≈ 3.23 µM)
MBC [20]: 7.81 µg/mL (≈ 12.9 µM)
MBC [21]: 61.2 µg/mL (≈ 102 µM)
MBC ([22]; Escherichia coli, E. coli (ATCC25922), read-out: MBC): 1.95 µg/mL (≈ 3.23 µM)
Selectivity Index (SI) ([22]; ratio IC50 (THP-I) / MIC for E. coli): 16
MBC [23]: 15.6 µg/mL (≈ 25.9 µM)
MBC [24]: 30.2 µg/mL (≈ 50 µM)
